Results: patent publication US20050085554A1, “Methods of treating disease through the administration of a manzamine analog or derivative” (priority 2003, published 2005)
pEC50: −log10 of the molar value. ≈ marks a conversion by molar mass, not a printed value. Where two headings read alike, the source gives them in different places.

How the values were obtained:
[1] = system: Mycobacterium intracellulare; test: Activity against M. intracellulare; type: cell-based
[2] = system: P. falciparum (chlorine-resistant W2 clone); test: Antimalarial activity in vitro, W2 clone; type: cell-based, Plasmodium falciparum
[3] = system: Plasmodium falciparum (D6 clone); test: Antimalarial activity in vitro, D6 clone; type: cell-based
Leishmania donovani = test: Antileishmanial activity in vitro; type: cell-based
[4] = system: Mycobacterium tuberculosis H37Rv; test: In vitro antimycobacterial activity (Microplate Alamar Blue Assay), MIC; type: cell-based; conditions: T4
HIV-1LAV = test: Anti-HIV-1 activity in PBM cells; type: cell-based, human immunodeficiency virus (HIV-1); conditions: T5
Protocol: Anti-HIV-1 activity was determined in PBM cells as described previously. See, Stock solutions (20 or 40 mM) of the compounds were prepared in sterile DMSO and then diluted to the desired concentration in growth medium. Cells were infected with the prototype HIV-1LAV at a multiplicity of infection of 0.1. Details on the infection of cells and assessment of antiviral effects was described previously. See, Schinazi, R. F.; McMillan, A.; Cannon, D.; Mathis, R.; Lloyd, R. M.; Peck, A.; Sommadossi, J.-P.; Clair, M. S.; Wilson, J.; Furman, P. A.; Painter G.; Choi, W.-B.; Liotta, D. C. Antimicrob. Agents Chemother. 1992, 36, 2423-2431 and Schinazi, R. F.; Sommadossi, J.-P.; Saalmann, V.; Cannon, D. L.; Xie, M.-Y.; Hart, G. C.; Smith, G. A.; Hahn, E. F. Antimicrob. Agents Chemother. 1990, 34, 1061-1067.

[5] = system: methicillin-resistant Staphylococcus aureus; test: Antibacterial activity against MRS; type: cell-based
Cryptococcus neoformans = test: Antifungal activity against Cryptococcus neoformans; type: cell-based; conditions: T5; NA = not active
Staphylococcus aureus = test: Antibacterial activity against S. aureus; type: cell-based; conditions: for IC50: Staphylococcus aureus

| Compound | IC50 M. intracellulare ([1]; T5, NA = not active) [µg/mL] | Mycobacterium Tuberculosis (H37Rv) MIC [4] [µg/mL] | pEC50 (HIV-1LAV) | P. falciparum (chlorine-resistant W2 clone) IC 50 ([2]; T4, NA = not active) [µg/mL] | Plasmodium falciparum (D6 clone) IC 50 ([3]; T4, NA = not active) [µg/mL] | Leishmania donovani IC 50 (Leishmania donovani; T4) [µg/mL] | Leishmania donovani IC 90 (Leishmania donovani; T4) [µg/mL] | other results |
| --- | --- | --- | --- | --- | --- | --- | --- | --- |
| 12-O-methylmanzamine-A |  |  |  |  |  |  |  | M. intracellulare IC50 ([1]; T7, first value of a cell '2.0/5.0'): 2.0 µg/mL; M. intracellulare, second value of the cell (presumably MIC) ([1]; T7, value after the slash under head IC50): 5.0 µg/mL; P. falciparum (chlorine-resistant W2 clone) IC 50 ([2]; T7): 1 µg/mL; Plasmodium falciparum (D6 clone) IC 50 ([3]; T7): 1.9 µg/mL; Leishmania donovani IC 50 (Leishmania donovani; T7): 6.5 µg/mL; Leishmania donovani IC 90 (Leishmania donovani; T7): 16 µg/mL |
| O=C1CCCN2[C@@H](CC1)C[C@]13CN4CCCC/C=C\CC[C@](O)(C=C(c5nccc6c5[nH]c5ccccc56)[C@@H]1CC4)[C@H]23 [Manzamine E] | 12.5 (≈ 22.1 µM) | 3.76 | 4.88 | 4.76 | 3.4 | 3.8 | 6.8 |  |
| CCCCOC12C=C(c3nccc4c3[nH]c3ccccc34)C3CCN(CCCCC=CCC1)CC31CC3C=CCCCCN3C21 (stereo not drawn) [12-O-butylmanzamine-A] |  |  |  |  |  |  |  | Leishmania donovani IC 50 (Leishmania donovani; T7): 4.7 µg/mL; Leishmania donovani IC 90 (Leishmania donovani; T7): 9.1 µg/mL |
| Oc1cccc2c1[nH]c1c(C3=C[C@@]4(O)CC/C=C\CCCCN5CCC3[C@]3(CC6CCC(NCc7ccc(Cl)cc7)CCCN6[C@H]34)C5)nccc12 (stereo partly drawn) [33-(p-chlorobenzylamino)-manzamine-F] |  |  |  |  |  |  |  | P. falciparum (chlorine-resistant W2 clone) IC 50 ([2]; T8): 1.3 µg/mL; Plasmodium falciparum (D6 clone) IC 50 ([3]; T8, NA not defined): 0.68 µg/mL |
| OCC1=C[C@]2(O)CC/C=C\CCCCN3CC[C@@H]1[C@@]1(C[C@H]4/C=C\CCCCN4[C@@H]12)C3 [Ircinol A] | 50 (≈ 121 µM) | 1.93 | 5.37 | 3.1 | 2.4 |  |  | Antibacterial IC50 MRS ([5]; T5, NA = not active): 30 µg/mL |
| O[C@]12C=C(c3nccc4c3[nH]c3ccccc34)[C@@H]3CCN(CCCC/C=C\CC1)C[C@@]31CC/C=C\CCCCN[C@H]12 [Manzamine J] |  | 1.7 |  | 0.75 | 1.3 | 25 | 45 |  |
| O[C@]12C=C(c3nccc4c3[nH]c3ccccc34)C3CCN(CCCC/C=C\CC1)C[C@@]31C[C@]34CC[C@H](CCCN3[C@H]12)O4 (stereo partly drawn) [6-Deoxymanzamine X] | 6.25 (≈ 11.1 µM) | 1.77 | 5.80 | 1.4 | 1.3 | 3.2 | 7.5 | Antifungal IC50 C. neoformans (Cryptococcus neoformans): 2.0 µg/mL; Antibacterial IC50 MRS ([5]; T5, NA = not active): 1.5 µg/mL; Antibacterial IC50 S. aureus (Staphylococcus aureus; T5, NA = not active): 1.5 µg/mL |
| O=C1CCCN2[C@@H](CC1)C[C@]13CN4CCCC/C=C\CC[C@](O)(C=C(c5nccc6c5[nH]c5c(O)cccc56)C1CC4)[C@H]23 (stereo partly drawn) [Manzamine F] | 6.25 (≈ 10.8 µM) | 2.56 | 5.14 | 1.7 | 0.78 | 4.2 | 7 | Antifungal IC50 C. neoformans (Cryptococcus neoformans): 6.5 µg/mL; P. falciparum (chlorine-resistant W2 clone) IC 50 ([2]; T8): 1.7 µg/mL; Plasmodium falciparum (D6 clone) IC 50 ([3]; T8, NA not defined): 0.78 µg/mL |
| N=C(N)c1ccc(OCCCCCOc2ccc(C(=N)N)cc2)cc1 [Pentamidine, reference compound] |  |  |  |  |  |  |  | IC50 (Leishmania donovani; Leishmania donovani, T4, read-out: Leishmania donovani IC 50): 2.1 µg/mL (≈ 6.17 µM); IC90 (Leishmania donovani; Leishmania donovani, T4, read-out: Leishmania donovani IC 90): 10 µg/mL (≈ 29.4 µM) |
| CCCOC12C=C(c3nccc4c3[nH]c3ccccc34)C3CCN(CCCCC=CCC1)CC31CC3C=CCCCCN3C21 (stereo not drawn) [12-O-propylmanzamine-A] |  |  |  |  |  |  |  | Leishmania donovani IC 50 (Leishmania donovani; T7): 4.5 µg/mL; Leishmania donovani IC 90 (Leishmania donovani; T7): 8.7 µg/mL |
| O=C(O)c1cn(C2CC2)c2cc(N3CCNCC3)c(F)cc2c1=O [Ciprofloxacin, reference compound] |  |  |  |  |  |  |  | IC50 ([1]; Mycobacterium intracellulare, T5, NA = not active, read-out: IC50 M. intracellulare): 0.25 µg/mL (≈ 0.754 µM); MIC ([1]; Mycobacterium intracellulare, T6): 0.63 µg/mL (≈ 1.9 µM); IC50 ([1]; Mycobacterium intracellulare, T6, read-out: Mycobacterium intracellulare IC50): 0.25 µg/mL (≈ 0.754 µM); IC50 ([5]; Staphylococcus aureus, T5, NA = not active, read-out: Antibacterial IC50 MRS): 0.1 µg/mL (≈ 0.302 µM); MIC ([5]; Staphylococcus aureus, T6): 0.31 µg/mL (≈ 0.936 µM); IC50 ([5]; T6, MRS: methicillin-resistant Staphylococcus aureus, read-out: MRS IC50): 0.1 µg/mL (≈ 0.302 µM); IC50 (Staphylococcus aureus; T5, NA = not active, read-out: Antibacterial IC50 S. aureus): 0.1 µg/mL (≈ 0.302 µM); IC50 (Staphylococcus aureus; T6, read-out: Staphylococcus aureus IC50): 0.1 µg/mL (≈ 0.302 µM) |
